Data taken from paper PMC11354392, “Molecular Characteristics of the Malate Dehydrogenase (MDH) Gene Family in Spirometra mansoni (Cestoda: Diphyllobothriidea)” (International Journal of Molecular Sciences, 2024).

How the values were obtained:
rSmMDH1 [1] = tested on: T1, rSmMDH1; assay: absorbance […] nm, Lineweaver-Burk; format: biochemical, Spirometra mansoni; settings: apparent
T1 construct: gene SmMDH1

rSmMDH1 [2] = molecular target: T1, rSmMDH1; assay: absorbance […] nm, Lineweaver-Burk secondary plot of […]/Vmax; format: biochemical, Spirometra mansoni; settings: forward reaction (oxaloacetate reduction, NADH); 100 mM Tris-HCl pH 7.5, 37 °C; reversible, binds enzyme-substrate complex

NC(=O)C1=CN([C@@H]2O[C@H](COP(=O)(O)OP(=O)(O)OC[C@H]3O[C@@H](n4cnc5c(N)ncnc54)[C@H](O)[C@@H]3O)[C@@H](O)[C@H]2O)C=CC1 [NADH]
Km (rSmMDH1 [1]; forward reaction, oxaloacetate co-substrate, 100 mM Tris-HCl pH 7.5, 37 °C): 1.75 mM

NC(=S)c1cccnc1 [thionicotinamide]
Ki (rSmMDH1 [2]): 144 µM

O=C(O)CC(=O)C(=O)O [oxaloacetic acid]
Km (rSmMDH1 [1]; forward reaction, NADH co-substrate, 100 mM Tris-HCl pH 7.5, 37 °C, tested 1-10 mM): 63.5 mM

NC(=O)c1ccc[n+]([C@@H]2O[C@H](COP(=O)(O)OP(=O)(O)OC[C@H]3O[C@@H](n4cnc5c(N)ncnc54)[C@H](O)[C@@H]3O)[C@@H](O)[C@H]2O)c1 [NAD]
Km (rSmMDH1 [1]; reverse reaction, malic acid co-substrate (methods print lactate), 100 mM Tris-HCl pH 8.6, 37 °C): 1.95 mM

O=C(O)C[C@H](O)C(=O)O [malic acid]
Km (rSmMDH1 [1]; reverse reaction, NAD co-substrate, 100 mM Tris-HCl pH 8.6, 37 °C): 1.19 mM
